Laboratory results published in patent US9895345B2, “Use of Lappaol F to inhibit tumor cell growth” (The Research Foundation Foundation for the State University …, priority 2013, dated 2018).
pEC50: −log10 of the molar value. Entries after “also recorded” stand apart in the source; their conditions may differ.

Assays:
[1] = test system: MCF-7 cells; assay: Flow cytometry cell cycle analysis; format: cell-based, Human; settings: 50 μM, 72 hrs
Protocol: (§1) FIG. 2: Lappaol F induces G1 and G2 cell cycle arrest. (A) Flow cytometry cell cycle analyses performed on cells treated with vehicle (DMSO) or Lappaol F (50 μM) for 72 hrs. (B) DAPI staining of RKO cells treated with Lappaol F (50 μM) for 72 hours. The number of mitotic cells over the total cells (mitotic index, MI) is also shown.
(§2) Cell cycle profile was determined by flow cytometry as follows. For determining the mitotic index, cells treated with or without Lappaol F were stained with 4′, 6-diamidino-2-phenylindole (DAPI). The number of mitotic cells was counted under a fluorescence microscope. Over 600 cells were counted in each sample and experiments were repeated at least three times.

[2] = test system: HeLa cells; assay: Flow cytometry cell cycle analysis; format: cell-based, Human; settings: 50 μM, 72 hrs
Protocol: as §1, §2

[3] = test system: RKO cells; assay: Flow cytometry cell cycle analysis; format: cell-based, Human; settings: 50 μM, 72 hrs
Protocol: as §1, §2

[4] = test system: MDA-MB-231 cells; assay: Flow cytometry cell cycle analysis; format: cell-based, Human; settings: 50 μM, 72 hrs
Protocol: as §1, §2

[5] = test system: p21, p27, CDK2, cyclin B and CDK1; assay: Cell cycle regulatory protein expression by Western blotting; format: cell-based, Human; settings: 50 μM, different cell lines
Protocol: FIG. 3: Regulation of key cell cycle regulatory proteins by Lappaol F. A-D. The indicated cells were treated with vehicle (DMSO) or Lappaol F (50 μM) for indicated time and protein expression of different cell cycle regulatory protein was analyzed by Western blotting. “C”: vehicle-treated control.
(§3) Western blotting was done by standard protocols. Sources of the antibodies are as follows: antibodies for p21 and GAPDH were from Santa Cruz Biotechnology (Santa Cruz, Calif.); cyclin B1 antibody was from BD bioscience (San Jose, Calif.); p27 antibody was from Cell Signaling Technology (Danvers, Mass.). CDK1 and CDK2 were from Assay Biotechnology (Sunnyvale, Calif.). Northern blot analysis was performed. and a full-length p21 cDNA was used as a probe for detecting the expression of p21 mRNA.

[6] = test system: p21 promoter in RKO p53-deficient (p53-/-) cells; assay: p21 promoter luciferase assay; format: cell-based, Human; settings: 50 μM, 24 hours
Protocol: (§4) FIG. 6: Lappaol F induces p21-promoter activation in cells with wild-type p53 and defective-p53. A&B MCF-7, MDA-MB-231 and RKO cells were untreated (DMSO) or treated with Lappaol F (50 μM) for 48 hrs; cells were then split into two parts; one part was used to analyze p21 mRNA expression by Northern blotting (A) and another part was utilized for p21 protein analysis by Western blotting (B). A full-length p21 cDNA was used as a probe for Northern blot analysis. C & D. p21 promoter luciferase activity in Lappaol F-treated and untreated cells with different p53 status. RKO and MCF-7 cells express the wild type-p53 protein whereas MDA-MB-231 expressing the mutant-p53. Hela cells harbor human papilloma virus; and p53 protein is not functional in these cells. Cells, transfected with p21 promoter luciferase construct, were untreated (DMSO) or treated with Lappaol F (50 μM) for 24 hours then analyzed for luciferase activity.
(§5) Luciferase assays were performed as follows. Briefly, cells transiently transfected with the p21-promoter luciferase construct were treated with or without Lappaol F (50 μM). Twenty-four hours later, luciferase activity of each cell lysate was analyzed using the Luciferase assay system (Thermo Scientific, Rockford, Ill.) with LUMAT LB9507 luminometer (Berthold Technologies, Germany).

[7] = test system: p21 promoter in RKO p53-proficient (p53+/+) cells; assay: p21 promoter luciferase assay; format: cell-based, Human; settings: 50 μM, 24 hours
Protocol: as §4, §5

[8] = test system: p21 promoter (RKO, MCF-7, Hela, MDA-MB-231); assay: p21 promoter luciferase assay in four cell lines; format: cell-based, Human; settings: 50 μM, 24 hours
Protocol: as §4, §5

[9] = test system: HeLa tumor xenografts; assay: HeLa xenograft tumor growth in nude mice; format: in vivo, BALB/c nude mice
Excerpt: All animal studies were approved and performed according to Animal Care and Use Guidelines of the Animal Ethics Committee at Guangzhou University of Chinese Medicine (Document No. syxk (Yue) 2008-0001). BALB/c nude mice (female, 4-5 weeks old) were first subcutaneously injected with 5×10^6 of HeLa cells on the back to establish tumor xenografts. Nine-days after tumor cell injection, mice with tumor volume of 90 mm^3-290 mm^3 were randomized into 3 groups; the average initial tumor volumes in each treatment group of mice were 161.28±23.9 mm^3 (for vehicle control), 160.7±17 7 mm^3 (for mice treated with Lappaol F 5 mg/kg) and 144.5±20 5 mm^3 (for mice treated with Lappaol F 10 mg/kg), respectively. Mice were then treated with Lappaol F (5 mg/kg/d, N=7; or 10 mg/kg/d, N=6) or with equivalent volume of vehicle (5% DMSO plus 5% Tween 80 in 5% glucose solution, 5 mL/kg/day, N=7) by intravenous injection for 15 days. Tumor size was monitored by measuring two perpendicular diameters with a caliper every 4 days. The tumor volume was calculated as volume=length×width^2×0.5. Cases of death and body weight in mice were monitored daily. The animal experiments were terminated on day 15 (tumor size exceeded a mean diameter of 20 mm in control animals) by sacrificing mice according to the guidelines. Tumor xenografts were then stripped and weighed. All results were expressed as Mean±standard error of the mean (SEM). Effects of various treatments were analyzed using the ONE-WAY ANOVA analysis and P-values <0.05 were considered statistically significant.

[10] = test system: RKO cells; assay: Mitotic index by DAPI staining; format: cell-based, Human; settings: 50 μM, 72 hours
Protocol: as §1, §2

[11] = test system: MCF-7 cells; assay: MTT cell proliferation assay; format: cell-based, Human; settings: read-out: estimated absolute EC50 of cell growth suppression
Protocol: (§6) MTT cell proliferation assays were performed as follows. Briefly, cells seeded in 12-well plate with or without drug treatment were incubated with 0.5 mg/ml 3-[4, 5-dimethylthiazol-2-yl]-2, 5-diphenyl tetrazolium bromide (MTT) for 1-4 hours. The resulting formazan precipitate was dissolved in isopropanol with 0.04 M HCl. Absorbance was read with a Bio-Rad SmartSpec 3100 at 570 nm with background subtraction read at 690 nm.

[12] = test system: RKO cells; assay: MTT cell proliferation assay; format: cell-based, Human; settings: read-out: estimated absolute EC50 of cell growth suppression
Protocol: as §6

[13] = test system: MDA-MB-231 cells; assay: MTT cell proliferation assay; format: cell-based, Human; settings: read-out: estimated absolute EC50 of cell growth suppression
Protocol: as §6

[14] = test system: wild-type p53; assay: Wild-type p53 expression by Western blotting; format: cell-based, Human
Protocol: (§7) FIG. 7: Lappaol F suppresses expression of mutant-p53 by reducing its half-life. A-C. Lappaol F has minimal effect on wild-type p53 protein expression in cells (MCF-7 and RKO) expressing wild-type p53 (A & C); however, Lappaol F strongly reduces mutant-p53 protein expression in MDA-MB-231, MDA-MB-468 and T47D cells (B & C). D & E. Treatment of Lappaol F reduces mutant-p53 protein half-life in MDA-MB-231 cells. Cells were first treated with or without with Lappaol F (50 μM) for 24 hours, cycloheximide (50 μg/ml) was then added into the cell culture medium for 0-8 hours and cells were harvested at 0, 2, 4, 6 and 8 hours after cycloheximide was added. Samples were subjected to Western blot analysis and the half-life of mutant p53 for cells treated with or without Lappaol F was determined F & G. Lappaol F decreases mutant p53 protein half-life in T47D cells. Mutant-p53 half-life was determined as described.
as §3, with “Northern blot analysis was performed. and a full-length p21 cDNA was used as a probe for detecting the expression of p21 mRNA.” left out

[15] = test system: c-Myc, MDM2 and HuR; assay: Oncogenic protein expression by Western blotting; format: cell-based, Human; settings: 50 μM
Protocol: FIG. 8: Lappaol F down regulates the expression of several oncogenic proteins commonly overexpressed in human cancers and linked to oncogenic transformation. A-C. Lappaol F suppresses the expression of c-Myc (A), MDM2 (B) and HuR (C). Cells were untreated (“C”) or treated with Lappaol F (50 μM) for the indicated times and Western blot analyses were performed using the indicated antibodies.
as §3

[16] = test system: mutant-p53; assay: Mutant-p53 expression by Western blotting; format: cell-based, Human
Protocol: as §7
as §3, with “Northern blot analysis was performed. and a full-length p21 cDNA was used as a probe for detecting the expression of p21 mRNA.” left out

[17] = test system: MCF10A non-cancerous breast epithelial cells; assay: MTT assay / phase contrast microscopy on non-tumorigenic cells; format: cell-based, Human; settings: 50 μM, 3 days or prolonged to six days
Protocol: (§8) FIG. 1: A. The chemical structure of Lappaol F. B & C. […] Cells shown were treated with or without Lappaol F (50 μM) for 72 hours. D & E. Results of 3-[4, 5-dimethylthiazol-2-yl]-2, 5-diphenyl tetrazolium bromide (MTT) assays showing Lappaol F inhibits tumor cell growth in time- and dose-dependent manners in different cancer cell lines. F & G. MCF10A non-tumorigenic breast epithelial cells treated with Lappaol F (50 μM) for 3 days (F) or 6 days (G). After treatment, cells were harvested for MTT assays (G) or photographs were taken under a phase contrast microscope (F). H. Results of colony formation assay showing that Lappaol F inhibits colony formation by A549 (lung), HCT116 (colon) and DU145 (prostate) tumor cells. I-N. Results of MTT assays showing Lappaol F suppresses cell growth in leukemia, melanoma and sarcoma cell lines.
as §6

[18] = test system: caspases 8, 9 and 3 in HeLa cells; assay: Caspase activation by Western blotting; format: cell-based, Human; settings: 50 μM
Protocol: (§9) FIG. 4: Effect of Lappaol F on caspase activation. The indicated cells were treated with vehicle (DMSO) or Lappaol F (50 μM) for indicated time. Activation of caspases 8, 9 and 3 (indicated by reduced levels of procaspases) was analyzed by Western blotting using indicated antibodies. “C”: vehicle-treated control.
as §3

[19] = test system: caspases 8, 9 and 3 in MDA-MB-231 cells; assay: Caspase activation by Western blotting; format: cell-based, Human; settings: 50 μM
Protocol: as §9, §3

[20] = test system: caspases 8 and 9 in MCF-7 cells; assay: Caspase activation by Western blotting; format: cell-based, Human; settings: 50 μM
Protocol: as §9, §3

[21] = test system: tumor cell lines of different tissue types; assay: Initial cytotoxic screening (colony formation, microscopy); format: cell-based, Human; settings: colon, breast, lung, cervix lines; 50 μM, 72 hours
Protocol: as §8

COc1cc([C@H]2Oc3c(OC)cc(C[C@H]4COC(=O)[C@@H]4Cc4cc(OC)c5c(c4)[C@H](CO)[C@@H](c4ccc(O)c(OC)c4)O5)cc3[C@@H]2CO)ccc1O [Lappaol F]
cell cycle arrest phase [1]: predominantly arrested in 2N G1-phase | cell cycle arrest phase [2]: predominantly arrested in 2N G1-phase | sub-2N cell death population (sub-G1) [2]: 15% | cell cycle arrest phase [3]: mainly arrested in 4N G2- (or M)-phase | cell cycle arrest phase [4]: mainly arrested in 4N G2- (or M)-phase | expression levels of CDK inhibitors p21 and p27 [5]: strikingly elevated | levels of CDK2, cyclin B and CDK1 [5]: clearly reduced | upregulation of p21 promoter activity [6]: 8.3 folds | induction of the p21 promoter [7]: 3.5 fold | p21 promoter activity [8]: significantly enhanced | inhibition of tumor growth relative to vehicle ([9]; 5 mg/kg/day i.v., 15 days): 54% | inhibition of tumor growth relative to vehicle ([9]; 10 mg/kg/day i.v., 15 days): 64% | lethality / body weight change in mice ([9]; 5 and 10 mg/kg/day i.v., 15 days): without significant body weight changes; also recorded: did not observe lethality or weight loss | effect on HeLa xenografts by intraperitoneal injection ([9]; intraperitoneal injection): did not show any significant effect | mitotic nuclei (mitotic index) [10]: no mitotic nuclei were observed | pEC50 [11]: 4.88 | pEC50 [12]: 4.60 | pEC50 [13]: 4.77 | levels of wild-type p53 ([14]; MCF-7 cells): no significant influence | expression levels of wild-type-p53 ([14]; RKO cells): did not significantly affect | expression of c-Myc, MDM2 and HuR oncoproteins [15]: strongly down-regulates | levels of mutant-p53 ([16]; MDA-MB-231 cells): significantly reduced | mutant-p53 expression ([16]; MDA-MB-468 and T47D cells): strongly inhibited | cytotoxicity towards MCF10A non-cancerous breast epithelial cells [17]: minimal cytotoxicity | caspase activation [18]: elicited caspases 9 and 3 activation | caspase activation [19]: activation of caspases 8, 9 and 3 was observed | caspase activation [20]: no clear evidence of caspase activation | growth inhibitory effect against tumor cell lines [21]: strong growth inhibitory effect
